Here are results for six compounds from patent publication US20240158390A1, “OTHER HETEROAROMATIC COMPOUNDS HAVING ACTIVITY AGAINST RSV” (Janssen Sciences Ireland Unlimited Company, priority 2019, published 2024).

One data set concerns rgRSV224 virus. Nature of the data set: Antiviral activity: rgRSV224 (GFP) replication in HeLa cells. The format is cell-based. The following applies: human respiratory syncytial virus, 72 h, read-out: RSV HELA EC50 (μM). Here is the method:
(§1) Black 384-well clear-bottom microtiter plates (Corning, Amsterdam, The Netherlands) were filled via acoustic drop ejection using the echo liquid handler (Labcyte, Sunnyvale, California). 200 nL of compound stock solutions (100% DMSO) were transferred to the assay plates. 9 serial 4-fold dilutions of compound were made, creating per quadrant the same compound concentration. The assay was initiated by adding 10 μL of culture medium to each well (RPMI medium without phenol red, 10% FBS-heat inactivated, 0.04% gentamycin (50 mg/mL). All addition steps are done by using a multidrop dispenser (Thermo Scientific, Erembodegem, Belgium). Next, rgRSV224 virus (MOI=1) diluted in culture medium was added to the plates. rgRSV224 virus is an engineered virus that includes an additional GFP gene (Hallak LK, Spillmann D, Collins PL, Peeples ME. Glycosaminoglycan sulfation requirements for respiratory syncytial virus infection; Journal of virology (2000), 74(22), 10508-13) and was in-licensed from the NIH (Bethesda, MD, USA). Finally, 20 μL of a HeLa cell suspension (3,000 cells/well) were plated. Medium, virus- and mock-infected controls were included in each test. The wells contain 0.05% DMSO per volume. Cells were incubated at 37° C. in a 5% CO2 atmosphere. Three days post-virus exposure, viral replication was quantified by measuring GFP expression in the cells by an in house developed MSM laser microscope (Tibotec, Beerse, Belgium). The EC50 was defined as the 50% inhibitory concentration for GFP expression. In parallel, compounds were incubated for three days in a set of white 384-well microtiter plates (Corning) and the cytotoxicity of compounds in HeLa cells was determined by measuring the ATP content of the cells using the ATPlite kit (Perkin Elmer, Zaventem, Belgium) according to the manufacturer's instructions. The CC50 was defined as the 50% concentration for cytotoxicity.

Another data set in a line: in vitro. It counts as cell-based. The settings on record: human. The method, then: as §1

With `C[C@@H]1c2ccccc2CCN1C(=O)c1cc(C2CC2)c2nc(-c3ccc(N4CC[C@H](C(=O)O)C4)cc3F)n(C)c2c1` [Compound 16, (3S)-1-(4-{4-Cyclopropyl-1-methyl-6-[(1R)-1-methyl-1,2,3,4-tetrahydroisoquinoline-2-carbonyl]-1H-1,3-benzodiazol-2-yl}-3-fluorophenyl)pyrrolidine-3-carboxylic acid], the EC50 (usually the midpoint of the concentration-response curve) in the data set with rgRSV224 virus came out at 0.61 µM. Moreover, the CC50 (commonly the concentration at which the toxic effect on the cells reaches its halfway point) at 3 days in “in vitro” was determined as 65.3 µM.
As to `C[C@@H]1c2ccccc2CCN1C(=O)c1cc(C2CC2)c2nc(-c3ccc(NC(=O)N4CC[C@@H](O)C4)cc3F)sc2c1` [Compound 24, (R)-N-(4-(4-cyclopropyl-6-((R)-1-methyl-1,2,3,4-tetrahydroisoquinoline-2-carbonyl)benzo[d]thiazol-2-yl)-3-fluorophenyl)-3-hydroxypyrrolidine-1-carboxamide], the concentration for a half-maximal effect (EC50) in the data set on rgRSV224 virus was determined as 0.17 µM. Besides, the CC50 at 3 days in the data set “in vitro” is 54 µM.
In the same order, the values of `C[C@@H]1c2ccccc2CCN1C(=O)c1cc(C2CC2)c2nn(-c3ccc(N)cc3F)cc2c1` [Compound 19, 4-{7-Cyclopropyl-5-[(1R)-1-methyl-1,2,3,4-tetrahydroisoquinoline-2-carbonyl]-2H-indazol-2-yl}-3-fluoroaniline] are 0.16 µM and 55.2 µM.
Taken in the same sequence, the figures for `C[C@@H]1c2ccccc2CCN1C(=O)c1cc(C2CC2)c2cc(-c3ccc(N4CC[C@@H](C(=O)O)C4)cc3F)n(C)c2c1` [Compound 10, (R)-1-(4-(4-cyclopropyl-1-methyl-6-((R)-1-methyl-1,2,3,4-tetrahydroisoquinoline-2-carbonyl)-1H-indol-2-yl)-3-fluorophenyl)pyrrolidine-3-carboxylic acid] were 2.64 µM and 21.1 µM.
In the same order, the values of `CCc1cc(C(=O)N2CCc3ccccc3[C@H]2C)nc2cc(-c3ccc(NC(=O)N4CC[C@@H](O)C4)cc3F)oc12` [Compound 6, (R)-N-(4-(7-ethyl-5-((R)-1-methyl-1,2,3,4-tetrahydroisoquinoline-2-carbonyl)furo[3,2-b]pyridin-2-yl)-3-fluorophenyl)-3-hydroxypyrrolidine-1-carboxamide] are 0.07 µM and above 100 µM.
In the case of `C[C@@H]1c2ccccc2CCN1C(=O)c1cc(-c2ccccc2)c2cn(-c3ccc(N4C[C@H](O)[C@@H](O)C4)cc3F)nc2c1` [Compound 25, (2-(4-((3S,4S)-3,4-dihydroxypyrrolidin-1-yl)-2-fluorophenyl)-4-phenyl-2H-indazol-6-yl)((R)-1-methyl-3,4-dihydroisoquinolin-2 (1H)-yl)methanone], the EC50 in the data set on rgRSV224 virus came out at 0.47 µM. In “in vitro”, this compound came in with a CC50 at 3 days of 19.4 µM.
